The subject of the data set is rodent carcinogenicity bioassays, tumor incidence. The experiment in a line: CCRIS carcinogenicity studies. Summed up: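 NCI-built, expert-reviewed records of carcinogenicity and related test outcomes (mutagenicity, tumor promotion/inhibition) compiled from published and report sources, historical span 1985-2011, not updated.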

The results in this text go back to PubChem BioAssay AID1259411 (Chemical Carcinogenesis Research Information System (CCRIS), 2018).

Molecules are shown by their SMILES. Calls of active or inactive are those of the source. The rule behind the calls is not given here.

With `CC(=O)CN(CC(C)=O)N=O`, the carcinogen call (Species: GUINEA PIG, Strain/Sex: STRAIN-13/MALE, Route: SUBCUTANEOUS, Dose: 70 MG/KG/WK FOR 2 WK FOLLOWED BY 1 WK NO TREATMENT THEN 20 MG/KG/WK FOR 2 WK, Tumor Site: Type of Lesion: LIVER: CHOLANGIOMA, CHOLANGIOCARCINOMA) is “active; positive”; the carcinogen call (Species: HAMSTER, Strain/Sex: SYRIAN/FEMALE, Route: SUBCUTANEOUS, Dose: 2.5, 5, 10 MG/KG, Dose: 2.5, 5, 10 MG/KG, Tumor Site: Type of Lesion: PANCREAS: DUCTAL ADENOMA, INTRADUCTAL CARCINOMA, ADENOCARCINOMA, LUNG: ADENOMA, ADENOCARCINOMA, SQUAMOUS CELL CARCINOMA;, Tumor Site: Type of Lesion: PANCREAS: DUCTAL ADENOMA, INTRADUCTAL CARCINOMA, ADENOCARCINOMA, LUNG: ADENOMA, ADENOCARCINOMA, SQUAMOUS CELL CARCINOMA) was “active; positive”; the carcinogen call (Species: HAMSTER, Strain/Sex: SYRIAN/MALE,FEMALE, Route: ORAL, Dose: 0.35, 0.7, 1.4% IN DRINKING WATER, Dose: 0.35, 0.7, 1.4% IN DRINKING WATER, Tumor Site: Type of Lesion: LIVER: CHOLANGIOMA, INTRADUCTAL CARCINOMA, CHOLANGIOCARCINOMA, GALL BLADDER: POLYP, COMMON BILE DUCT: POLYP, COMMON DUCT, Tumor Site: Type of Lesion: LIVER: CHOLANGIOMA, INTRADUCTAL CARCINOMA, CHOLANGIOCARCINOMA, GALL BLADDER: POLYP, COMMON BILE DUCT: POLYP, COMMON DUCT) is “active; positive”; the carcinogen call (Species: HAMSTER, Strain/Sex: SYRIAN/MALE, Route: SUBCUTANEOUS, Dose: 2.5, 5, 10 MG/KG, Dose: 2.5, 5, 10 MG/KG, Tumor Site: Type of Lesion: PANCREAS: DUCTAL ADENOMA, INTRADUCTAL CARCINOMA, ADENOCARCINOMA, LUNG: ADENOMA, ADENOCARCINOMA, GALL BLADDER: PAPILLARY, Tumor Site: Type of Lesion: PANCREAS: DUCTAL ADENOMA, INTRADUCTAL CARCINOMA, ADENOCARCINOMA, LUNG: ADENOMA, ADENOCARCINOMA, GALL BLADDER: PAPILLARY) is “active; positive”; the carcinogen call (Species: MOUSE, Strain/Sex: ICR/FEMALE, Route: SUBCUTANEOUS, Dose: 0, 10, 20, 40 MG/KG BW IN 1% GELATIN SOLUTION ON DAYS 1, 8, 15 AND 22 OF AGE (STUDY DURATION: 1 YR), Dose: 0, 10, 20, 40 MG/KG BW IN 1% GELATIN SOLUTION ON DAYS 1, 8, 15 AND 22 OF AGE (STUDY DURATION: 1 YR), Tumor Site: Type of Lesion: NASAL CAVITY: TUMOR, LUNG: TUMOR, LIVER: TUMOR, Tumor Site: Type of Lesion: NASAL CAVITY: TUMOR, LUNG: TUMOR, LIVER: TUMOR) is “active; positive”; the carcinogen call (Species: MOUSE, Strain/Sex: ICR/MALE, Route: SUBCUTANEOUS, Dose: 0, 10, 20, 40 MG/KG BW IN 1% GELATIN SOLUTION ON DAYS 1, 8, 15 AND 22 OF AGE (STUDY DURATION: 1 YR), Dose: 0, 10, 20, 40 MG/KG BW IN 1% GELATIN SOLUTION ON DAYS 1, 8, 15 AND 22 OF AGE (STUDY DURATION: 1 YR), Tumor Site: Type of Lesion: NASAL CAVITY: TUMOR, LUNG: TUMOR, LIVER: TUMOR, Tumor Site: Type of Lesion: NASAL CAVITY: TUMOR, LUNG: TUMOR, LIVER: TUMOR) is “active; positive”. Besides, the carcinogen call is, setting by setting: (Species: RAT, Strain/Sex: CD-1/FEMALE, Route: SUBCUTANEOUS, Dose: 0, 5.35, 10.7, 21.4 MG/KG 1/WK FOR LIFE (STUDY DURATION: LIFE), Dose: 0, 5.35, 10.7, 21.4 MG/KG 1/WK FOR LIFE (STUDY DURATION: LIFE), Tumor Site: Type of Lesion: NASAL CAVITY: TUMOR) “active; positive”; (Species: RAT, Strain/Sex: CD-1/MALE, Route: SUBCUTANEOUS, Dose: 0, 6.15, 12.3, 24.6 MG/KG 1/WK FOR LIFE (STUDY DURATION: LIFE), Dose: 0, 6.15, 12.3, 24.6 MG/KG 1/WK FOR LIFE (STUDY DURATION: LIFE), Tumor Site: Type of Lesion: NASAL CAVITY: TUMOR) “active; positive”; (Species: RAT, Strain/Sex: F344/FEMALE, Route: INTRAVESICULAR, Dose: 0, 0.8 MG IN 0.2 ML ETHANOL: DEIONIZED WATER (1:3) 2/WK FOR 30 WK (TOTAL DOSE 0.3 MMOL) (STUDY DURATION: LIFESPAN), Tumor Site: Type of Lesion: BLADDER: TRANSITIONAL CELL CARCINOMA, TRANSITIONAL CELL PAPILLOMA, LUNG: TUMOR, KIDNEY: MESENCHYMAL NEOPLASM, LIVER: TUM, Tumor Site: Type of Lesion: BLADDER: TRANSITIONAL CELL CARCINOMA, TRANSITIONAL CELL PAPILLOMA, LUNG: TUMOR, KIDNEY: MESENCHYMAL NEOPLASM, LIVER: TUM) “active; positive”; (Species: RAT, Strain/Sex: F344/FEMALE, Route: ORAL, Dose: 0, 55 MG/L DRINKING WATER 5 D/WK FOR 50 WK (TOTAL DOSE 275 MG) (STUDY DURATION: LIFESPAN), Tumor Site: Type of Lesion: LIVER: CARCINOMA, ANGIOSARCOMA, LUNG: TUMOR) “active; positive”; (Species: RAT, Strain/Sex: F344/FEMALE, Route: SUBCUTANEOUS, Dose: 0, 10 MG/KG/BW 2/WK FOR A TOTAL OF 11 DOSES BEGINNING AT 2 D OF AGE (STUDY DURATION: 26 WK), Tumor Site: Type of Lesion: LIVER: HEPATOCELLULAR CARCINOMA, KIDNEY: NEPHROBLASTOMA) “active; positive”; (Species: RAT, Strain/Sex: F344/MALE, Route: SUBCUTANEOUS, Dose: 0, 10 MG/KG/BW 2/WK FOR A TOTAL OF 11 DOSES BEGINNING AT 2 D OF AGE (STUDY DURATION: 26 WK), Tumor Site: Type of Lesion: LIVER: HEPATOCELLULAR CARCINOMA, KIDNEY: NEPHROBLASTOMA, TESTIS: GONADAL STROMAL TUMOR, Tumor Site: Type of Lesion: LIVER: HEPATOCELLULAR CARCINOMA, KIDNEY: NEPHROBLASTOMA, TESTIS: GONADAL STROMAL TUMOR) “active; positive”. The carcinogen call (Species: RAT, Strain/Sex: MRC/MALE,FEMALE, Route: SUBCUTANEOUS, Dose: 2.5, 5, 10 MG/KG, Dose: 2.5, 5, 10 MG/KG, Tumor Site: Type of Lesion: THYROID GLAND: FOLLICULAR ADENOMA, CARCINOMA) is “active; positive”; the carcinogen call (Species: RAT, Strain/Sex: SPRAGUE-DAWLEY/FEMALE, Route: SUBCUTANEOUS, Dose: 0, 5.35, 10.7, 21.4 MG/KG BW IN 0.9% SALINE 1/WK FOR DURATION OF STUDY (STUDY DURATION: 96 WK), Dose: 0, 5.35, 10.7, 21.4 MG/KG BW IN 0.9% SALINE 1/WK FOR DURATION OF STUDY (STUDY DURATION: 96 WK), Tumor Site: Type of Lesion: KIDNEY (RENAL PELVIS): TUMOR, URETER: TUMOR, URINARY BLADDER: TUMOR, Tumor Site: Type of Lesion: KIDNEY (RENAL PELVIS): TUMOR, URETER: TUMOR, URINARY BLADDER: TUMOR) is “active; positive”; the carcinogen call (Species: RAT, Strain/Sex: SPRAGUE-DAWLEY/MALE, Route: SUBCUTANEOUS, Dose: 0, 6.15, 12.3, 24.6 MG/KG BW IN 0.9% SALINE 1/WK FOR DURATION OF STUDY (STUDY DURATION: 96 WK), Dose: 0, 6.15, 12.3, 24.6 MG/KG BW IN 0.9% SALINE 1/WK FOR DURATION OF STUDY (STUDY DURATION: 96 WK), Tumor Site: Type of Lesion: KIDNEY (RENAL PELVIS): TUMOR, URINARY BLADDER: TUMOR) is “active; positive”.

Turning to `CCCCCCc1ccc(O)cc1O`, the carcinogen call reads like this: (Species: MOUSE, Strain/Sex: B6C3F1/FEMALE, Route: GAVAGE, Dose: 0, 62.5, 125 MG/KG IN CORN OIL 5D/WK FOR 102 WK (STUDY DURATION: 104 WK), Dose: 0, 62.5, 125 MG/KG IN CORN OIL 5D/WK FOR 102 WK (STUDY DURATION: 104 WK)) “inactive; negative”; (Species: MOUSE, Strain/Sex: B6C3F1/MALE, Route: GAVAGE, Dose: 0, 62.5, 125 MG/KG IN CORN OIL 5D/WK FOR 102 WK (STUDY DURATION: 104 WK), Dose: 0, 62.5, 125 MG/KG IN CORN OIL 5D/WK FOR 102 WK (STUDY DURATION: 104 WK), Tumor Site: Type of Lesion: ADRENAL GLAND: PHEOCHROMOCYTOMA, HARDERIAN GLAND: ADENOMA OR CARCINOMA) “equivocal”; (Species: RAT, Strain/Sex: F344/FEMALE, Route: GAVAGE, Dose: 0, 62.5, 125 MG/KG IN CORN OIL 5D/WK FOR 103 WK (STUDY DURATION: 104 WK), Dose: 0, 62.5, 125 MG/KG IN CORN OIL 5D/WK FOR 103 WK (STUDY DURATION: 104 WK)) “inactive; negative”; (Species: RAT, Strain/Sex: F344/MALE, Route: GAVAGE, Dose: 0, 62.5, 125 MG/KG IN CORN OIL 5D/WK FOR 103 WK (STUDY DURATION: 104 WK), Dose: 0, 62.5, 125 MG/KG IN CORN OIL 5D/WK FOR 103 WK (STUDY DURATION: 104 WK)) “inactive; negative”.
